Data set [1] has as its system docetaxel-induced neutropenia. Nature of the data set: Grade 4 neutropenia in patients on docetaxel with or without plinabulin. It counts as in vivo, human. As to conditions: for proportion of patients with Grade 4 neutropenia: Cycle 1, Day 8, ANC<0.5×10^9/L, docetaxel alone vs plinabulin added to docetaxel, p<0.0003.
Data set [2] is described as follows: Safety / product profile of plinabulin vs G-CSF in patients (bone pain, hospitalization, hypertension, laboratory parameters). It counts as in vivo, human.
In data set [3] the test system is neutropenia caused by chemotherapies. Nature of the data set: Animal model studies of chemotherapy-caused neutropenia. It counts as in vivo. As to conditions: animal models; docetaxel, cisplatin, adriamycin, cyclosphosphamide, topotecan, gemcitabine. From the text:
Clinical complications of neutropenia (febrile neutropenia, infections, sepsis, and mortality) occur with Grade 4 Neutropenia, as compared to with Grade 2 or 3 Neutropenia. For regulatory approval, the FDA and Health Authorities focus on Grade 4 Neutropenia data.

The test system of data set [4] is docetaxel-induced neutropenia. Nature of the data set: Randomized double blind study, plinabulin vs pegfilgrastim in solid tumor patients receiving docetaxel (Example 4). Type of data set: in vivo, human. As to conditions: for neutrophil count through time (FIG. 1): after docetaxel 75 mg/m^2. Here is the method: A randomized, double blind study to evaluate duration of severe neutropenia with plinabulin versus pegfilgrastim in patients with solid tumors receiving docetaxel myelosuppressive chemotherapy was performed. Patients were randomly assigned to the following arms (with the respective sample sizes): Arm 1: Docetaxel (75 mg/m^2)+Pegfilgrastim (6 mg) (n=14); Arm 2: Docetaxel (75 mg/m^2)+Plinabulin (20 mg/m^2) (n=14); Arm 3: Docetaxel (75 mg/m^2)+Plinabulin (10 mg/m^2) (n=14); and Arm 4: Docetaxel (75 mg/m^2)+Plinabulin (5 mg/m^2) (n=13).

The test system of data set [5] is NSCLC patients with a measurable lesion. The following applies: human, in vivo.
Data set [6] concerns docetaxel-induced severe neutropenia. Nature of the data set: Calculated DSN from Day 8 neutrophil nadir values (simulation, Deming regression). Type of data set: in vivo, human. The following applies: from observed Day 8 neutrophil (nadir) values, Cycle 1.
From the text: DSN is obtained using the following methods (described below) for generation of ANC data and the observed neutrophil values on Day 8/Cycle 1 in the Phase 2 study. […] The study may assume that the shape of the time/neutrophil recovery curve in plinabulin-treated patients is indistinguishable from the time/neutrophil recovery curve for filgrastim and its biosimilars.
Mean values and standard deviations of ANC during the 21-day follow-up period can be obtained from the reference. […] The simulation would then also generate the projected number of days with severe neutropenia, (i.e., the DSN).
The test system of data set [7] is chemotherapy-induced febrile/severe neutropenia. Nature of the data set: Reported FN frequency and DSN with docetaxel or TAC chemotherapy, with or without G-CSF. The following applies: docetaxel monotherapy 75 mg/m^2 without G-CSF. Type of data set: in vivo, human. Here is the method: The frequency of FN with docetaxel monotherapy (100 mg/m^2)+G-CSF is reported to be 1% in Cycle 1. […] 2002; 20:727-731.
The FN percentage is about 12.7% with 75 mg/m^2 docetaxel. Based on this range of FN and the relationship established between FN and DSN, the assumption is that, with docetaxel monotherapy at a dose of 75 mg/m^2 without G-CSF, the median DSN is estimated to be 4-5 days.
The margin can be selected based on the data that Taxotere/Adriamycin/cyclophosphamide (TAC) chemotherapy can induce a median DSN of 7 days in breast cancer patients receiving no G-CSF treatment, while G-CSF treatment reduces the mean DSN for this chemotherapy to 1.4 days (95% CI: 1.07-1.69) as shown in pegfilgrastim Study. Based on this a non-inferiority limit of 1 day is derived.

Data set [8] shares this test system. The following applies: cited from earlier work.
Another data set addresses CYP3A4 (Homo sapiens, UniProt P08684). As to conditions: with the use of strong CYP3A4 inhibitors; cited from earlier work.
The conditions of data set [9]: most common adverse reactions; cited from earlier work.
For data set [10] the following is noted: G-CSF, Table 1; cited from earlier work.
The mark [11] stands for this setting: Plinabulin 5 mg/m2 + docetaxel 75 mg/m^2.
Setting [12] is: Plinabulin 10 mg/m2 + docetaxel 75 mg/m^2.
Setting [13] is: Plinabulin 20 mg/m2 + docetaxel 75 mg/m^2.
Setting [14] is: Neulasta 6 mg + docetaxel 75 mg/m^2.

Like-named read-outs stand apart in the source and are kept apart here.

Sequence of CYP3A4 (P08684 whole entry): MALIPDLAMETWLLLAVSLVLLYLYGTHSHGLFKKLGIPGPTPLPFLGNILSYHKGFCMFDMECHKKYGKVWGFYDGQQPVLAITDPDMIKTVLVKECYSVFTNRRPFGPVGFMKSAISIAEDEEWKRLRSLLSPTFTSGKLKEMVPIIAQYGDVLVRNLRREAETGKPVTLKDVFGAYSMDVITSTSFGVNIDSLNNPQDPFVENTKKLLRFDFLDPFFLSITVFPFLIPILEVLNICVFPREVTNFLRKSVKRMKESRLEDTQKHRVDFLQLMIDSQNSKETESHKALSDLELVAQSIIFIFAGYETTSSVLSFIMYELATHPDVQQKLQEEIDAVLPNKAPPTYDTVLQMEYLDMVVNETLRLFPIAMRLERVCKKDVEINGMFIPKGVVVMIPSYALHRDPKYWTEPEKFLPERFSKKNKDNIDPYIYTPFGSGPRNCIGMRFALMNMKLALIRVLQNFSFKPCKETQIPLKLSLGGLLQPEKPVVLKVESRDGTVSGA

For `CC(C)(C)c1[nH]cnc1/C=c1\[nH]c(=O)/c(=C/c2ccccc2)[nH]c1=O` [Plinabulin, (3Z,6Z)-3-Benzylidene-6-{[5-(2-methyl-2-propanyl)-1H-imidazol-4-yl]methylene}-2,5-piperazinedione], the “proportion of patients with Grade 4 neutropenia” value in [1] is 4.6%. Besides, the “clinical sequelae associated with docetaxel-induced neutropenia (sepsis, infections, hospitalizations, docetaxel dose reductions, G-CSF use)” value in [1] (human, in vivo) was “reduced”. Moreover, the “Grade 3 transient hypertension, patients” value in data set [2] (20 mg/m^2 plinabulin) turned out to be 5%; in data set [2] (30 mg/m^2 plinabulin) it was 20%. For the same molecule, the “Bone Pain (% of patients)” value in data set [2] (Plinabulin, Table 1) is listed as <4%. Besides, the “Hospitalization (% of patients)” value in [2] (Plinabulin, Table 1) worked out at 6%. The “Bone pain, patients reporting” value in [2] (patients receiving plinabulin) is reported as 4%. For the same molecule, the “changes in hematology or chemistry laboratory parameters” value in [2] (plinabulin monotherapy, solid tumor patients, no chemotherapy) is reported as “did not experience any clinically significant deleterious changes”. Moreover, in [3], the “prevention of neutropenia caused by chemotherapies” value was “prevent neutropenia”. The “DSN” value in data set [4] (setting [11]) is 0.46 days; in data set [4] (setting [12]), 0.43 days; in data set [4] (setting [13]), 0.38 days. The “Grade 4 Incidence (%)” value in data set [4] (setting [11]) was 23%; in [4] (setting [12]), 21%; in data set [4] (setting [13]) it was 15%. Besides, in data set [4], the “neutrophil count through time (FIG. 1)” value was “started to rise again on day 10”. Moreover, the “treatment of neutropenia induced by chemotherapeutic agent” value in data set [4] (human, in vivo) is “effective in treating neutropenia”. Moreover, the “Immune-Related AEs (IR-AEs)” value in [5] was “without increasing Immune-Related AEs”.
In the case of `CC(=O)O[C@@]12CO[C@@H]1C[C@H](O)[C@@]1(C)C(=O)[C@H](O)C3=C(C)[C@@H](OC(=O)[C@H](O)[C@@H](NC(=O)OC(C)(C)C)c4ccccc4)C[C@@](O)([C@@H](OC(=O)c4ccccc4)[C@H]21)C3(C)C` [docetaxel], the “proportion of patients with Grade 4 neutropenia” value in data set [1] is 33.3%. In data set [6], the “calculated mean DSN” value is 1.076 days. Moreover, the “estimated median DSN” value in data set [7] is 4 to 5 days. For the same molecule, the FN percentage entry in data set [8] (75 mg/m^2 docetaxel) was “about 12.7%”. The “frequency of FN” value in data set [8] (Cycle 1, docetaxel 100 mg/m^2 without G-CSF) is recorded as 11%; in [8] (over all cycles, docetaxel 60 mg/m^2 without G-CSF) it was 19.8%; in [8] (over all cycles, docetaxel 100 mg/m^2 without G-CSF), 17%. Moreover, the “increase of docetaxel exposure” value on CYP3A4 is recorded as “approximately 2 fold”.

B1: Neulasta: pegfilgrastim (Neulasta®), a granulocyte colony-stimulating factor (G-CSF) compound (protein, chains of the INN, looked up)
chain: TPLGPASSLPQSFLLKCLEQVRKIQGDGAALQEKLCATYKLCHPEELVLLGHSLGIPWAPLSSCPSQALQLAGCLSQLHSGLFLYQGLLQALEGISPELGPTLDTLQLDVADFATTIWQQMEELGMAPALQPTQGAMPAFASAFQRRAGGVLVASHLQSFLEVSYRVLRHLAQP
As to B1, in [4] (setting [14]), the “DSN” value was found to be 0.14 days and the “Grade 4 Incidence (%)” value turned out to be 14%. For the same molecule, in data set [4], the “neutrophil count through time (FIG. 1)” value was “had an initial increase and then began to drop after 10 days”. For the same molecule, in data set [9], the “bone pain, patients” value is given as 31% and the “pain in an extremity, patients” value is given as 9%.

B2: G-CSF: Granulocyte-colony stimulating factor; G-CSF compounds include filgrastim and pegfilgrastim (protein, UniProt P09919 31-207, looked up)
Granulocyte …: TPLGPASSLPQSFLLKCLEQVRKIQGDGAALQEKLVSECATYKLCHPEELVLLGHSLGIPWAPLSSCPSQALQLAGCLSQLHSGLFLYQGLLQALEGISPELGPTLDTLQLDVADFATTIWQQMEELGMAPALQPTQGAMPAFASAFQRRAGGVLVASHLQSFLEVSYRVLRHLAQP
For B2, in [10], the “Bone Pain (% of patients)” value is >20% and the “Hospitalization (% of patients)” value is recorded as 20%. The “mean DSN” value in [8] (G-CSF treatment with TAC chemotherapy, 95% CI: 1.07-1.69) is 1.4 days.
